Experimental data taken from patent EP3501540A1, “MITOCHONDRIAL TRIFUNCTIONAL PROTEIN (MTP) INHIBITORS FOR USE IN THE TREATMENT OF HIGH MITOCHONDRIAL RESPIRATION (OX+) CANCERS” (UNIVERSITE DE BORDEAUX, priority 2017, dated 2019).

Legend:
A549 (OX+) cells [1] = assay: Sulphorodamine B viability assay; type: cell-based, human; details: A549 (OX+) cells in vitro
Method: A549_LUC and H460_LUC, human lung cancer cells, were stably transfected with luciferase (pRRLsin-MND-Luc-WPRE). […] Also, they were tested as luciferase positive using direct application of 2 mL of a 150 mg/ml solution of luciferine (Firefly Luciferin, Caliper Lifescience Corp, USA), followed by immediate bioluminescent imaging using the photonIMAGER™ optima system.
(§1) Briefly, cells were seeded in 96-well plates and medium was changed after 24 h, then Test Reagent was added on top of the cell wells and incubated for up to 72h. The viability assay was performed using Sulforhodamine B colorimetric assay for viability assay following the protocol described by Vanicha Vichai & Kanyawim Kirtikara.

H460 cells [2] = assay: Sensitivity to chemotherapeutic drugs; type: cell-based, human; details: H460 cells compared with A549 cells; data not shown
HADHA = HADHA expression in cells; type: cell-based, human; details: A549 cells; LiCl 20 mM
Method: Cells pellet were lysed in a buffer containing RIPA IX (Sigma-Aldrich) and protease inhibitors cocktail (chymostatin, leupeptin, antipain, pepstatin A - Sigma-Aldrich). Protein lysates were placed on ice for 15 min, vortexed and cleared by centrifugation at 12,000 × g for 15 min at 4 °C. The supernatants were retrieved and frozen at -80 °C until use. Protein concentration was performed using the Pierce™ BCA Protein Assay Kit.
Samples (20ug) were dissolved in Laemmli buffer (Bio-Rad) containing 2% mercaptoethanol by incubation for 15 min at 65°C and separated on a 4-15% SDS-polyacrylamide gradient TGX STAIN FREE mini-gel (Biorad). The gels are activated by UV with chemidoc (Biorad). Proteins were transferred electrophoretically to 0.45 µm of nitrocellulose membranes for 7 min at 2.5 Amp in Transfert buffer with Trans-Blot Turbo (biorad). Membranes were blocked 1h in odyssey buffer (eurobio) and incubated overnight in a mixture of antibodies diluted in odyssey buffer. After three washes with PBS-0.05% Tween 20, the membranes were incubated for 1 h with second antibody (LYCOR) diluted in odyssey buffer. This secondary antibody was detected by fluorescence with odyssey. Proteins were detected using specific antibodies (abcam) and total protein was used as the loading control. Primary antibodies (abcam®) against HADHA, VLCAD, mt-ETFA, mt-ETFB, NDUFS2 and NDUFAB1.

H460 (OX-) cells = assay: Sulphorodamine B viability assay; type: cell-based, human; details: H460 (OX-) cells in vitro
Method: A549_LUC and H460_LUC, human lung cancer cells, were stably transfected with luciferase (pRRLsin-MND-Luc-WPRE). The cells were maintained in DMEM medium (Gibco) 11885-084 and 11965-092 respectively, supplemented with 10% fetal bovine serum (FBS), pH 7.4 at 37°C in a humidified incubation chamber with 5% CO2. Cells were sub-cultured every 2 days and used on experiments when they reached 85% confluency. Also, they were tested as luciferase positive using direct application of 2 mL of a 150 mg/ml solution of luciferine (Firefly Luciferin, Caliper Lifescience Corp, USA), followed by immediate bioluminescent imaging using the photonIMAGER™ optima system.
as §1

[3] = system: A549 cells expressing luciferase; assay: Orthotopic mouse model of human lung OX+ adenocarcinoma, bioluminescence imaging; type: in vivo, mice; details: luminescence imaging at day 3 and day 18; Trimetazidine 20mg/kg/day
From the text: (§2) All procedures using animals were approved by the Animal Care and Use Ethics Committee of the University of Bordeaux. The NOD/LtSz-scid/IL-2Rychain^null (NSG) mice were produced and housed in the University Bordeaux Segalen animal facility, according to the rules and regulations governed and enforced by the Institutional Animal Care and Use Committee. The animal facility institutional agreement number is A33063916. Animals were included in protocols between 6 and 8 weeks old. Mice were monitored weekly for body weights and were also examined for aspect and behavior during the time-course of the experiments. No changes were noticed except otherwise indicated.
(§3) The orthotopic mouse models of OX+ or OX- human LUAD were obtained by using luciferase expressing clones of A549 or H460 lung adenocarcinoma cell lines, respectively. Groups of 5 mice were anesthetized with isoflurane and 1 × 10^6 cells in a volume of 100µl were injected in the lung of 8-weeks NGS mice and imaged 20 min after injection. Bioluminescence imaging (BLI) was performed on a Bioimager following intraperitonal injection of 150 mg/kg of D-Luciferin (Interchim, Montluçon, France). After 10 min, mice were anesthetized by isoflurane and placed into a photon bioimager (BIOSPACE LAB, Paris, France) for about 20 min to acquire luminescence images. Signals were quantified with the M3Vision software (BIOSPACE LAB). […]

[4] = system: human lung OX- H460 adenocarcinoma; assay: Orthotopic mouse model of human lung OX- adenocarcinoma; type: in vivo, mice; details: 20 mg/kg daily
From the text: as §2, §3

A549 cells [5] = assay: Incorporation of [13C]-palmitate in Krebs cycle by mass spectrometry; type: cell-based, human; details: after 2 hours
Method: The incorporation of palmitate in Krebs cycle was followed at the level of citrate using mass spectrometry. A549 cells grown in low glucose DMEM were washed twice with PBS and resuspended in PBS containing 2 mm [U-13C]palmitate with (10 mm) glucose.
The cells were incubated for 2 h at 27 °C before fast filtration preparation of the samples for mass spectrometry analysis. Metabolites were analyzed by ionic-exchange chromatography coupled with tandem mass spectrometry (IC-MS/MS) using the method described by Bolten et al. Retention time on the column and multiple reaction monitoring (MRM) transition of each analyzed metabolite are known by the one skilled in the art.
The ^13C mass isotopomer distribution of intracellular metabolites was determined from relevant isotopic clusters in the IC-MS/MS analysis, according to Kiefer et al. ^13C mass isotopomer distribution measurements were performed using a triple quadrupole mass spectrometer (4000Qtrap, Applied Biosystems). To obtain ^13C-labeling patterns (^13C isotopologues), isotopic clusters were corrected for the natural abundance of isotopes other than 13C, using the in-house software IsoCor (available at MetaSys).

A549 cells [6] = assay: Mass spectrometry lipidomic analysis of cells; type: cell-based, human; details: inside A549 cells
Method: (§4) Extracted samples were dissolved in 100 µL CHC13; 15 µL was injected for analysis. LC separation was achieved using a Bio-Bond 5U C4 column (Dikma). The LC solvents were as follows: buffer A, 95:5 H2O:methanol + 0.03% NH4OH; buffer B, 60:35:5 isopropanol:methanol:H2O + 0.03% NH4OH. A typical LC run consisted of the following for 70 min after injection: 0.1 mL/min 100% buffer A for 5 min, 0.4 mL/min linear gradient from 20% buffer B to 100% buffer B over 50 min, 0.5 mL/min 100% buffer B for 8 min and equilibration with 0.5 mL/min 100% buffer A for 7 min. FFA analysis was performed using a Thermo Scientific Q Exactive Plus fitted with a heated electrospray ionization source. The MS source parameters were 4 kV spray voltage, with a probe temperature of 437.5 °C and capillary temperature of 268.75 °C. Full-scan MS data was collected with a resolution of 70 k, AGC target 1 × 106, maximum (max) injection time of 100 ms and a scan range of 150-2,000 m/z. […] Extracted ion chromatograms for each FFA were generated using a m/z ± 0.01 mass window around the calculated exact mass (i.e., palmitic acid, calculated exact mass for M-H is 255.2330, and the extracted ion chromatogram was 255.22-255.24). Quantification of the FFAs was performed by measuring the area under the peak and dividing this number by the area under the peak for [^13C16]palmitate. […]

H460 cells [7] = assay: Mass spectrometry lipidomic analysis of cells; type: cell-based, human; details: 48 hours
Method: as §4

[8] = Mass spectrometry lipidomic analysis of blood; type: in vivo, mice; details: 20mg/kg/day, day 7
Method: as §4

A549 (OX+) cells [9] = assay: Oxygen consumption by high-resolution respirometry; type: cell-based, human; details: 500µM for 48H
Method: O2 consumption rates were measured polarographically using high-resolution respirometry (Oroboros Oxygraph-O2K). After the treatment period, medium was removed and cells were either suspended in DMEM in the presence of glucose or not for measurements of O2 consumption of intact cells, or in the respiration medium pH 7.2 (mannitol 0.25 M, MgCl2 10 mM, KH2PO4 10 mM, HEPES 10 mM, EDTA 0.08 mM, EGTA 1 mM and fatty acid free BSA 0.1%) for evaluation of respiratory complexes of permeabilized cells. Routine consumption, oligomycin-independent respiration (proton leak), FCCP-stimulated respiration (ETS capacity - maximum respiration) and ROX (oxygen consumption in presence of rotenone and antimicyn A) were measured in intact […] cells. All the values were corrected by ROX. The respiratory activity of ETF of digitonin 0.0015%-permeabilized lung cancer cells were performed following the addition of palmitoyl-carnitine 25 µM (ETF-linked substrate), rotenone 0.5 µM, ADP 100 µM. DatLab software (Oroboros Instruments, Innsbruck, Austria) was used for data acquisition and analysis.

A549 cells [10] = assay: ATP measurement (CellTiter-Glo); type: cell-based, human; details: 500µM for 48H
Method: The ATP content was performed using the The CellTiter-Glo® Luminescent Cell Viability Assay (Promega) folowing manufacturer's instructions. Luminescence was read on a spectramax M4 Multi-Mode Microplate Reader (Molecular Devices) and values were calculated based on an ATP standard curve. The assay was normalized to cell number.

A549 (OX+) cells [11] = assay: NAD/NADH determination; type: cell-based, human; details: 500µM for 48H
Method: The NAD/NADH was measure using the NAD/NADH Colorimetric assay Kit (abcam), according to the manufacturer's instructions. At 25°C absorbance was measured at 450 nm and the value used to calculate the ratio. The assay was normalized to cell number.

[12] = system: respiratory chain complex I; assay: Complex I enzymatic activity assay (spectrophotometric); type: biochemical, human; details: A549 cells: 500 µM Trimetazidine 48H; cell homogenate: 100 µM palmitoyl-Coa, 10 min incubation
Method: Enzymatic activities were measured spectrophotometrically, in homogenate of cells using the following reaction media: Complex I - 50mM potassium phosphate buffer, 100µM Decylubiquinone. The reaction was started by the addition of 100µM NADH and carried out at 37°C for 15 min in 340nm. After the stabilization of the signal was added 12,5µM Rotenone. Complex II - 25mM potassium phosphate buffer, 1mM KCN, 100µM ATP, 50µM DCPIP, 20mM succinate. The reaction was started by the addition of 100µM decylubiquinone and carried out at 37°C for 15 min in 660nm. Complex III - 100mM potassium phosphate buffer, 50µM cytochrome c, 250µM EDTA. The reaction was started by the addition of 100µM decylubiquinol and carried out at 37°C for 15 min in 550nm. After the stabilization of the signal was added 12,5µg/ml antimycin A. Complex IV - 100uM reduced cytochrome C in 50mM potassium phosphate buffer. The reaction was started by the addition of homogenate of cells and carried out at 37°C for 15 min in 550nm.

Complex I subunits = assay: Quantitative proteome analysis of complex I subunits; type: cell-based, human; details: A549 cells

Compound: COc1ccccc1OCC(O)CN1CCN(CC(=O)Nc2c(C)cccc2C)CC1 (racemic) [Ranolazine, (±)-N-(2,6-dimethylphenyl)-4-[2-hydroxy-3-(2-methoxyphenoxy)-propyl]-1-piperazineacetamide]
- cell viability (A549 (OX+) cells [1]): dose-dependent loss

Compound: O=c1[nH]cc(F)c(=O)[nH]1 [5-fluorouracile]
- sensitivity to the chemotherapeutic drugs (H460 cells [2]): higher sensitivity

Compound: COC(=O)c1cccc(NS(=O)(=O)c2ccc(C)cc2)c1 [MSAB, methyl 3-{[(4-methylphenyl)sulfonyl]amino}benzoate]
- expression of HADHA (HADHA): opposite effect

Compound: COc1ccc(CN2CCNCC2)c(OC)c1OC [Trimetazidine, 1-(2,3,4-trimethoxybenzyl)piperazine]
- cell viability (A549 (OX+) cells [1]): Dose-dependent reduction
- cell viability (H460 (OX-) cells): no effect
- tumor size [3]: Reduction of tumor size
- effect on OX- tumors [4]: no effect
- incorporation of [^13C]-palmitate in the Krebs cycle ([^13C]citrate isotopomers) (A549 cells [5]): significant reduction
- accumulation of unprocessed fatty-acids (A549 cells [6]): accumulation
- accumulation of unprocessed fatty-acids (H460 cells [7]): not
- Fatty-acids accumulation in the blood ([8]; OX+ mice): accumulation
- level of hydroxylated fatty acids (C18-OH, C18-1OH, C18-2OH, C16OH, C14OH) ([8]; blood of OX+ mice): increased
- mitochondrial respiration (A549 (OX+) cells [9]): inhibited
- cellular ATP content (A549 cells [10]): altered
- NADH redox state (NAD+/NADH ratio) (A549 (OX+) cells [11]): altered
- respiratory chain complex I activity [12]: inhibition
- content of 15 Complex I subunits (Complex I subunits): significant reduction
- Complex I intermediate-associated protein 30 (CIA30; NDUFAF1) (Complex I subunits; after 4 hours of treatment): completely degraded

Compound: COc1cccc2c1C(=O)c1c(O)c3c(c(O)c1C2=O)C[C@@](O)(C(=O)CO)C[C@@H]3O[C@H]1C[C@H](N)[C@H](O)[C@H](C)O1 [doxorubicin]
- sensitivity to the chemotherapeutic drugs (H460 cells [2]): higher sensitivity

Compound: COc1cc([C@@H]2c3cc4c(cc3[C@@H](O[C@@H]3O[C@@H]5CO[C@@H](C)O[C@H]5[C@H](O)[C@H]3O)[C@H]3COC(=O)[C@H]23)OCO4)cc(OC)c1O [etoposide]
- sensitivity to the chemotherapeutic drugs (H460 cells [2]): higher sensitivity

Compound: CCCCCCCCCCCCCCCC(=O)SCCNC(=O)CCNC(=O)[C@H](O)C(C)(C)COP(=O)(O)OP(=O)(O)OC[C@H]1O[C@@H](n2cnc3c(N)ncnc32)[C@H](O)[C@@H]1OP(=O)(O)O [palmitoyl-CoA]
- respiratory chain complex I activity [12]: inhibition

Compound: lithium-chloride
- expression of HADHA (HADHA): stimulated
